Converted amounts (≈) assume the structure as drawn. Where two headings read alike, the source gives them in different places.
Legend:
[1] = test system: Magnaporthe grisea; test: microbe, parasite or virus in culture; format: cell-based; conditions: Pyricularia oryzae, read-out: % Mycelial growth Inhibition
[2] = test system: Uncinula necator; test: Leaf disk assay; conditions: Uncinula necator (leaf disc assay)
Protocol: Leaf disk assay was carried out by the cavity well plate method for powdery mildew disease of grapes. Leaf disks of 14 mm in diameter were cut with a cork borer from the healthy leaves (second and third from the tip) of grapevine plants, and were dipped in 100 μl of each test compound at different concentrations for two minutes, as in treatment details shown below. The control leaf disks were dipped only in sterile water for two minutes. The compound treated leaf disks were placed, abaxial side up, in TC-24 well plates containing water agar medium. The disks were inoculated by placing 20 μl of inoculum (1-5×10^6 spores/ml) on the centre of the disk. After inoculation, the cavity well plates were incubated at 20° C. for 10 days. After incubation, the powdery mildew lesions on the leaf disks were rated to 0-9 scale, in which, 0 was no visible symptoms and 9 represented more than 50% leaf area with mildew growth/lesion. Percent disease index (PDI) was calculated as follows: […]
After the observation, the conidia were washed from the leaf disks in known volume of a fixative solution of ethanol-formaldehyde-acetic acid (90:5:5, v/v/v) and counted with a hemocytometer.

[3] = test system: C. glabrata ATCC-90030; test: MIC versus reference Candida strains (broth micro dilution); conditions: Nakaseomyces glabratus, ATCC90030
[4] = test system: C. krusei ATCC-6258; test: as above; conditions: Pichia kudriavzevii, ATCC6258
[5] = test system: C. tropicalis ATCC-750; test: as above; conditions: Candida tropicalis, ATCC750
[6] = test system: C. parapsilosis ATCC-90018; test: as above; conditions: Lodderomyces parapsilosis, ATCC90018
[7] = test system: Colletotrichum gloeosporioides; test: Paper disc in the path of pathogen growth, growth and sporulation; format: cell-based; conditions: compound on sterile paper disc
[8] = test system: C. albicans ATCC-90028; test: MIC versus reference Candida strains (broth micro dilution); conditions: Candida albicans, ATCC90028
[9] = test system: Botrytis cinerea; test: Changes in the hyphal tips; format: cell-based; conditions: compound in the media, 2 μg/ml
From the text: Apical dominance is an important criterion for growth of hyphae of fungi: at the apical tip of the mycelia branching is not seen near the growing tip. Apical dominance is maintained but branching of hyphae will start at sub-apical point, a distance away from the growth point. Under abnormal conditions of stress, apical dominance is lost, extensive branching begins, resulting in the growth of the fungal mycelia being arrested. When the test compound is incorporated in the media in which the fungi is present, hyphal tip splitting and branching is seen with loss of apical dominance and polarity. […] Hyphae from the inoculated disc start growing against gravity and are thicker than the normal hyphae seen in the control (the two upper pictures).

[10] = test system: Colletotrichum gloeosporioides (mango strain); test: In vitro mycelial growth inhibition, poisoned plate; format: cell-based; conditions: 5 μg/ml
Protocol: (§1) Growth of fungi was carried out in potato dextrose agar media at […], and test compound was added at different concentrations and at pH 5.8 for compound X″ and at pH 7.0 for its potassium salt, compound XII″, with a water control instead of test compound. Radial mycelial growth was measured at regular intervals 4, 8, 12 and 16 days for slow growing fungi and at 3, 6 and 8 days for fast growing fungi. When the mycelia reached the end of the plate, measurements were stopped. Morphological changes in the hyphal growth and sporulation patterns were also observed. For dose response studies a range of concentrations and a range of inhibition obtained falling below and above 50% inhibition (see Table 23 below)

[11] = test system: Alternaria solani; test: as above; format: cell-based; conditions: 50 μg/ml
Protocol: as §1

[12] = test system: Botrytis cinerea; test: as above; format: cell-based; conditions: 2.5 μg/ml
Protocol: as §1

[13] = test system: Colletotrichum gloeosporioides (chili strain); test: as above; format: cell-based; conditions: 5 μg/ml
Protocol: as §1

[14] = test system: C. parapsilosis ATCC-22019; test: MIC versus reference Candida strains (broth micro dilution); conditions: Lodderomyces parapsilosis, ATCC22019
[15] = test system: Puccinia arachidis; test: Leaf disk assay; conditions: Puccinia arachidis (leaf disc assay)
[16] = test system: M. grisea; format: cell-based; conditions: sterile water with different concentrations of test compound
[17] = test system: Plasmopara viticola; format: cell-based; set-up: dose or concentration left out as unconfirmed; conditions: Plasmopara viticola (spore germination)
[18] = test system: C. albicans SC5314; test: MIC versus reference Candida strains (broth micro dilution); format: cell-based
[19] = test system: C. albicans ATCC-24433; test: as above; conditions: Candida albicans, ATCC24433
[20] = test system: C. dubliniensis; test: Susceptibility of clinical isolates (MIC, broth dilution); format: cell-based; conditions: Candida dubliniensis; C. dubliniensis (n = 25); M27-A3, 24 hrs; read at 50% inhibition (potassium salt, Voriconazole), 100% (Amphotericin), MEC (Caspofungin); read-out: MIC90
Protocol: (§2) The efficacy of compound IV″ was investigated on 563 clinical isolates of 33 human fungal pathogens. […] For species with n≧10, the MIC90 (MIC, minimal inhibitory concentration) is given as ng/ml. For species with n≦10, the MIC range is given as ng/ml. 24 h and 48 h reads are indicated (Table 1).
(§3) The in vitro efficacy of antifungal compounds is determined in susceptibility assays, which are indicative for the spectrum and potency of a compound. Susceptibilities are reported as minimal inhibitory concentrations (MIC, as ng/ml or μg/ml) required to inhibit growth to a defined degree compared to the drug free control. The MIC90 defines the MIC required to inhibit growth for ≧90% of the strains of a population tested.
(§4) The MIC90 was calculated for the indicated species.

[21] = test system: C. lusitaniae; test: as above; format: cell-based; conditions: Clavispora lusitaniae; C. lusitaniae (n = 24); M27-A3, 24 hrs; read at 50% inhibition (potassium salt, Voriconazole), 100% (Amphotericin), MEC (Caspofungin); read-out: MIC90
Protocol: as §2, §3, §4

[22] = test system: C. glabrata; test: as above; format: cell-based; conditions: Nakaseomyces glabratus; C. glabrata (n = 25); M27-A3, 24 hrs; read at 50% inhibition (potassium salt, Voriconazole), 100% (Amphotericin), MEC (Caspofungin); read-out: MIC90
Protocol: as §2, §3, §4

[23] = test system: C. albicans; test: as above; format: cell-based; conditions: Candida albicans; C. albicans (n = 20); M27-A3, 24 hrs; read at 50% inhibition (potassium salt, Voriconazole), 100% (Amphotericin), MEC (Caspofungin); read-out: MIC90
Protocol: as §2, §3, §4

[24] = test system: C. parapsilosis; test: as above; format: cell-based; conditions: Lodderomyces parapsilosis; C. parapsilosis (n = 37); M27-A3, 24 hrs; read at 50% inhibition (potassium salt, Voriconazole), 100% (Amphotericin), MEC (Caspofungin); read-out: MIC90
Protocol: as §2, §3, §4

[25] = test system: C. tropicalis; test: as above; format: cell-based; conditions: Candida tropicalis; C. tropicalis (n = 35); M27-A3, 24 hrs; read at 50% inhibition (potassium salt, Voriconazole), 100% (Amphotericin), MEC (Caspofungin); read-out: MIC90
Protocol: as §2, §3, §4

[26] = test system: C. krusei; test: as above; format: cell-based; conditions: Pichia kudriavzevii; C. krusei (n = 27); M27-A3, 24 hrs; read at 50% inhibition (potassium salt, Voriconazole), 100% (Amphotericin), MEC (Caspofungin); read-out: MIC90
Protocol: as §2, §3, §4

[27] = test system: H. capsulatum; test: microbe, parasite or virus in culture; format: cell-based; conditions: Histoplasma capsulatum, 120 h
[28] = test system: Candida albicans; test: In vitro fungicidal activity vs. Candida albicans; conditions: Candida albicans
[29] = test system: C. albicans, Fluconazole, Voriconazole, Itraconazole and/or Caspofungin resistant isolates; test: Susceptibility of resistant clinical isolates (MIC, broth dilution); format: cell-based; conditions: Candida albicans; C. albicans resistant (n = 20): isolates resistant to Fluconazole, Itraconazole and Caspofungin; read-out: MIC90
[30] = test system: C. glabrata, Fluconazole, Voriconazole, Itraconazole and/or Caspofungin resistant isolates; test: as above; format: cell-based; conditions: Nakaseomyces glabratus; C. glabrata resistant (n = 21): isolates resistant to Fluconazole, Itraconazole, Voriconazole and Caspofungin; read-out: MIC90
Protocol: as §2, §4

[31] = test system: C. albicans; test: Fatty acid competition (antagonism) in 96-well plates; conditions: 48 h
[32] = test system: B. dermatitidis; test: Susceptibility of clinical dimorphic fungi (MIC); format: cell-based; conditions: Blastomyces dermatitidis; B. dermatitidis (n = 30); CLSI M38-A2; 50% growth reduction; MIC read at 96 h
[33] = test system: Coccidioides spp.; test: microbe, parasite or virus in culture; format: cell-based; conditions: Coccidioides, 48 h
[34] = test system: A. versicolor; test: Susceptibility of clinical Aspergillus isolates (MIC); format: cell-based; conditions: Aspergillus versicolor; A. versicolor (n = 3); CLSI M38-A2; 50% growth inhibition; 24 h; read-out: MIC50
Protocol: as §2
(§5) Susceptibilities were determined according to the CLSI reference method M38-A2.

[35] = test system: A. nidulans; test: as above; format: cell-based; conditions: A. nidulans (n = 3), CLSI M38-A2, 50% growth inhibition, 24 h, read-out: MIC50
Protocol: as §2, §5

[36] = test system: A. fumigatus; test: as above; format: cell-based; conditions: Aspergillus fumigatus; A. fumigatus (n = 20); CLSI M38-A2; 50% growth inhibition; 24 h; read-out: MIC50
Protocol: as §2, §5

[37] = test system: A. niger; test: as above; format: cell-based; conditions: A. niger (n = 6), CLSI M38-A2, 50% growth inhibition, 24 h, read-out: MIC50
Protocol: as §2, §5

[38] = test system: A. terreus; test: as above; format: cell-based; conditions: Aspergillus terreus; A. terreus (n = 5); CLSI M38-A2; 50% growth inhibition; 24 h; read-out: MIC50
Protocol: as §2, §5

[39] = test system: A. flavus; test: as above; format: cell-based; conditions: Aspergillus flavus; A. flavus (n = 2); CLSI M38-A2; 50% growth inhibition; 24 h; read-out: MIC50
Protocol: as §2, §5

O=C([O-])CCCCCCCCCC#CC#Cc1ccco1.[K+] [Compound XII″, Potassium 14-(furan-2-yl)tetradeca-11,13-diynoate]
inhibition at 5 µg/mL [1]: 27%
Reduction in % disease index/germination ([2]; 10 μg/ml): 65%
Reduction in % disease index/germination ([2]; 20 μg/ml): 100%
MIC [3]: 0.32 µg/mL
MIC [4]: 0.64 µg/mL
MIC [5]: 0.01 µg/mL
MIC [6]: 5.12 µg/mL
growth of the mycelia [7]: the growth of the mycelia is arrested
sporulation around the loaded disc [7]: no sporulation observed
MIC [8]: 0.01 µg/mL
toxicity to the fungus, hyphal changes [9]: toxic to the fungus Botrytis cinerea
inhibition at 5 µg/mL [10]: 28%
inhibition at 50 µg/mL [11]: 42%
inhibition at 2.5 µg/mL [12]: 76%
inhibition at 5 µg/mL [13]: 10%
MIC [14]: > 10.2 µg/mL
Reduction in % disease index/germination ([15]; 10 μg/ml): 67%
Reduction in % disease index/germination ([15]; 20 μg/ml): 75%
spores that did not germinate [16]: more than 50%
Reduction in % disease index/germination [17]: 93%
MIC [18]: 0.01 µg/mL
MIC [19]: 0.01 µg/mL

C[C@@H]1[C@H](O)[C@@H](C)/C=C/C=C/C=C/C=C/C=C/C=C/C=C/[C@H](O[C@@H]2O[C@H](C)[C@@H](O)[C@H](N)[C@@H]2O)C[C@@H]2O[C@](O)(C[C@@H](O)C[C@@H](O)[C@H](O)CC[C@@H](O)C[C@@H](O)CC(=O)O[C@H]1C)C[C@H](O)[C@H]2C(=O)O [Amphotericin B]
MIC90 [20]: 1 µg/mL
MIC90 [21]: 1 µg/mL
MIC90 [22]: 2 µg/mL
MIC90 [23]: 0.5 µg/mL
MIC90 [24]: 0.5 µg/mL
MIC90 [25]: 1 µg/mL
MIC90 [26]: 4 µg/mL
MIC90 [27]: 0.125 µg/mL (≈ 0.135 µM)
Fungicidal Concentration [28]: 800 ng/mL
MIC90 ([28]; 24 h, read-out: MIC90 24 h): 0.2 µg/mL (≈ 0.216 µM)
MIC90 ([28]; 48 h, read-out: MIC90 48 h): 0.8 µg/mL (≈ 0.866 µM)
MIC90 [29]: 0.5 µg/mL (≈ 0.541 µM)
MIC90 [30]: 2 µg/mL (≈ 2.16 µM)
effect of oleic acid / stearic acid on susceptibility [31]: oleic acid did not decrease the susceptibility
MIC90 [32]: 0.25 µg/mL (≈ 0.271 µM)
MIC90 [33]: 0.5 µg/mL (≈ 0.541 µM)
MIC50 [34]: 2 µg/mL (≈ 2.16 µM)
MIC50 [35]: 2 µg/mL (≈ 2.16 µM)
MIC50 [36]: 0.5 µg/mL (≈ 0.541 µM)
MIC50 [37]: 1 µg/mL (≈ 1.08 µM)
MIC50 [38]: 2 µg/mL (≈ 2.16 µM)
MIC50 [39]: 2 µg/mL (≈ 2.16 µM)
